For 13 compounds, EC50 and inhibition results are on record in patent US10519169B2, “3-(1H-pyrrolo[2,3-C]pyridin-2-yl)-1 H-pyrazolo[4,3-B]pyridines and therapeutic uses thereof” (Samumed, LLC, priority 2015, dated 2019).

Bounds are passed on as bounds.

What all share (type): cell-based
Test [1] relates to SW480 colon cancer cells. Nature of the test: Cell viability assay (CellTiter-Blue), SW480 cells. The note with it: Homo sapiens; for EC50: 96 h, four days, CellTiter-Blue; for inhibition at 10 µM: given for EC50 >10 μM, read-out: percent inhibition at 10 μM. On the procedure: Representative compounds were screened using the following assay procedure to assess the effect on cell viability as described below.
Each compound was dissolved in DMSO as a 10 mM stock and used to prepare compound source plates. Serial dilution (1:3, 8-point dose-response curves from […]) and compound transfer was performed using the ECHO 550 (Labcyte, Sunnyvale, Calif.) into 96-well clear bottom, black-walled plates (Corning-Costar).
Approximately 2×10^3 SW480 colon cancer cells were seeded into each well and allowed to incubate in the presence or absence of compound for four days at 37° C./5% CO2. Eight replicates of DMSO-treated cells served as controls and cells treated with compound were performed in duplicate.
After incubation, 20 μL of CellTiter-Blue (Promega) was added to each well allowed to incubate for approximately 3 hours. This reagent was a buffered solution which contains resazurin, metabolically active cells were able to reduce rezarurin (blue) into resorufin (pink) which was highly fluorescent. This measured fluorescence was used as a readout for cell viability.
After incubation, the plates were read at Ex 560 nm Em 590 nm (Cytation 3, BioTek). Dose-response curves were generated and EC50 concentration values were calculated using non-linear regression curve fit in the GraphPad Prism (San Diego, Calif.) or Dotmatics' Studies Software (Bishops Stortford, UK). For EC50 of >10 μM, the percent inhibition at 10 μM is provided.
Background: The colour change of resazurin is a common sign of viable cells or microbes.

Test [2] concerns Wnt activity (Sp5-Luc reporter, TCF/LEF binding sites) in SW480 colon carcinoma cells. The test can be described thus: Wnt activity screening assay, Sp5-Luc reporter gene in SW480 cells. To be noted: Homo sapiens; for EC50: overnight incubation; for inhibition at 10 µM: given for EC50 >10 μM, read-out: percent inhibition at 10 μM. From the text:
The screening assay for Wnt activity is described as follows. Reporter cell lines can be generated by stably transducing cancer cell lines (e.g., colon cancer) or primary cells (e.g., IEC-6 intestinal cells) with a lentiviral construct that includes a Wnt-responsive promoter driving expression of the firefly luciferase gene.
SW480 colon carcinoma cells were transduced with a lentiviral vector expressing luciferase with a human Sp5 promoter consisting of a sequence of eight TCF/LEF binding sites. SW480 cells stably expressing the Sp5-Luc reporter gene and a hygromycin resistance gene were selected by treatment with 150 μg/mL of hygromycin for 7 days. These stably transduced SW480 cells were expanded in cell culture and used for all further screening activities. Each compound was dissolved in DMSO as a 10 mM stock and used to prepare compound source plates. Serial dilution (1:3, 10-point dose-response curves starting from 10 μM) and compound transfer was performed using the ECHO 550 (Labcyte, Sunnyvale, Calif.) into 384-well white solid bottom assay plates (Greiner Bio-One) with appropriate DMSO backfill for a final DMSO concentration of 0.1%. For Sp5-Luc reporter gene assays, the cells were plated at 4,000 cells/well in 384-well plates with medium containing 1% fetal bovine serum and incubated overnight at 37° C. and 5% CO2. Following incubation, 20 μl of BrightGlo luminescence reagent (Promega) was added to each well of the 384-well assay plates. The plates were placed on an orbital shaker for 2 min and then luminescence was quantified using the Envision (Perkin Elmer) plate reader. Readings were normalized to DMSO only treated cells, and normalized activities were utilized for EC50 calculations using the dose-response log (inhibitor) vs. response-variable slope (four parameters) nonlinear regression feature available in GraphPad Prism 5.0 (or Dotmatics). For EC50 of >10 μM, the percent inhibition at 10 μM is provided.
(Reporter assays use an easily measured gene product as a stand-in for the process of interest.)

For test [3], the system named is primary human fibroblasts derived from IPF patients (LL29 cells) treated with TGF-β1. Nature of the test: Inhibition of fibrotic process, αSMA staining in TGF-β1 treated LL29 fibroblasts. To be noted: Fibroblast; for EC50: 96 h, TGF-β1 20 ng/mL, 4 days, % cells positive for αSMA. The source says:
Representative compounds were screened using primary human fibroblasts (derived from IPF patients) treated with TGF-β1 to determine their ability to inhibit the fibrotic process.
Primary human fibroblasts derived from IPF patients (LL29 cells) [^1Xiaoqiu Liu, et. al., “Fibrotic Lung Fibroblasts Show Blunted Inhibition by cAMP Due to Deficient cAMP Response Element-Binding Protein Phosphorylation”, Journal of Pharmacology and Experimental Therapeutics (2005), 315(2), 678-687; ^2Watts, K. L., et. al., “RhoA signaling modulates cyclin D1 expression in human lung fibroblasts; implications for idiopathic pulmonary fibrosis”, Respiratory Research (2006), 7(1), 88] were obtained from American Type Culture Collection (ATCC) and expanded in F12 medium supplemented with 15% Fetal Bovine Serum and Penicillin/Streptomycin.
Each compound was dissolved in DMSO as a 10 mM stock and used to prepare compound source plates. Serial dilution (1:2, 11-point dose-response curves from […] to […]) and compound transfer was performed using the ECHO 550 (Labcyte, Sunnyvale, Calif.) into 384-well clear bottom assay plates (Greiner Bio-One) with appropriate DMSO backfill for a final DMSO concentration of 0.1%. LL29 cells are plated at 1,500 cells/well in 80 μL/well F12 medium supplemented with 1% Fetal Bovine Serum. One hour after addition of the cells, TGF-β1 (Peprotech; 20 ng/mL) was added to the plates to induce fibrosis (ref. 1 and 2 above). Wells treated with TGF-β1 and containing DMSO were used as controls. Cells were incubated at 37° C. and 5% CO2 for 4 days. Following incubation for 4 days, SYTOX green nucleic acid stain (Life Technologies [Thermo Fisher Scientific]) was added to the wells at a final concentration of 1 μM and incubated at room temperature for 30 min. Cells were then fixed using 4% formaldehyde (Electron Microscopy Sciences), washed 3 times with PBS followed by blocking and permeabilization using 3% Bovine Serum Albumin (BSA; Sigma) and 0.3% Triton X-100 (Sigma) in PBS. Cells were then stained with antibody specific to α-smooth muscle actin (aSMA; Abcam) (ref. 1 and 2 above) in 3% Bovine Serum Albumin (BSA; Sigma) and 0.3% Triton X-100 (Sigma) in PBS, and incubated overnight at 4° C. Cells were then washed 3 times with PBS, followed by incubation with Alexa Flor-647 conjugated secondary antibody (Life Technologies [Thermo Fisher Scientific]) and DAPI at room temperature for 1 hour. Cells were then washed 3 times with PBS and plates were sealed for imaging. aSMA staining was imaged by excitation at 630 nm and emission at 665 nm and quantified using the Compartmental Analysis program on the CellInsight CX5 (Thermo Scientific). Dead or apoptotic cells were excluded from analysis based on positive SYTOX green staining. % of total cells positive for aSMA were counted in each well and normalized to the average of 11 wells treated with TGF-β1 on the same plate using Dotmatics' Studies Software. The normalized averages (fold change over untreated) of 3 replicate wells for each compound concentration were used to create dose-responses curves and EC50 values were calculated using non-linear regression curve fit in the Dotmatics' Studies Software. For EC50 of >10 μM, the percent inhibition at 10 μM is provided.

A word on the EC50: it is the concentration needed to bring the measured effect to its halfway point. The low end stands for a more potent agent, the high end for a less potent agent. As to `Fc1cccc(-c2cncc3[nH]c(-c4n[nH]c5ccc(-c6cccnc6)nc45)cc23)c1` [Compound 4, 3-(4-(3-Fluorophenyl)-1H-pyrrolo[2,3-c]pyridin-2-yl)-5-(pyridin-3-yl)-1H-pyrazolo[4,3-b]pyridine], the EC50 in test [1] was determined as 475 nM; in test [2] it was 255 nM; in test [3] it was 272 nM.
The like results for `CN(C)c1cncc(-c2ccc3[nH]nc(-c4cc5c(-c6cccc(F)c6)cncc5[nH]4)c3n2)c1` [Compound 7, 5-(3-(4-(3-Fluorophenyl)-1H-pyrrolo[2,3-c]pyridin-2-yl)-1H-pyrazolo[4,3-b]pyridin-5-yl)-N,N-dimethylpyridin-3-amine] were, in that order, 357 nM, 516 nM and 450 nM.
The like results for `Fc1cccc(-c2cncc3[nH]c(-c4n[nH]c5ccc(-c6cncc(CN7CCCCC7)c6)nc45)cc23)c1` [Compound 15, 3-(4-(3-Fluorophenyl)-1H-pyrrolo[2,3-c]pyridin-2-yl)-5-(5-(piperidin-1-ylmethyl)pyridin-3-yl)-1H-pyrazolo[4,3-b]pyridine] were, in that order, 4610 nM, 3710 nM and greater than 10000 nM.
One may read the inhibition as the relative decrease from the control value, in per cent. As to `Cc1ccncc1-c1ccc2[nH]nc(-c3cc4c(-c5ccc(F)cc5)cncc4[nH]3)c2n1` [Compound 33, 3-(4-(4-Fluorophenyl)-1H-pyrrolo[2,3-c]pyridin-2-yl)-5-(4-methylpyridin-3-yl)-1H-pyrazolo[4,3-b]pyridine], the concentration for a half-maximal effect (EC50) was 1860 nM in test [1], greater than 10000 nM in test [2] and 1760 nM in test [3]. In addition, in test [2], the inhibition at 10 µM turned out to be 21.5%.
On to `O=C(Nc1cncc(-c2ccc3[nH]nc(-c4cc5c(-c6ccc(F)cc6)cncc5[nH]4)c3n2)c1)c1ccccc1` [Compound 39, N-(5-(3-(4-(4-Fluorophenyl)-1H-pyrrolo[2,3-c]pyridin-2-yl)-1H-pyrazolo [4,3-b]pyridin-5-yl)pyridin-3-yl)benzamide], for which the concentration giving a half-maximal response (EC50) in test [1] is 2310 nM; in test [2] it was 3430 nM; in test [3], greater than 10000 nM. Also, the inhibition at 10 µM in test [3] (given for EC50 >10 μM, TGF-β1, αSMA, 10 μM, read-out: percent inhibition at 10 μM) was 39.8%.
As to `Fc1ccc(-c2cncc3[nH]c(-c4n[nH]c5ccc(-c6cncc(CN7CCC(F)(F)C7)c6)nc45)cc23)cc1` [Compound 54, 5-(5-((3,3-Difluoropyrrolidin-1-yl)methyl)pyridin-3-yl)-3-(4-(4-fluorophenyl)-1H-pyrrolo[2,3-c]pyridin-2-yl)-1H-pyrazolo[4,3-b]pyridine], the EC50 in test [1] is 827 nM; in test [2], 751 nM; in test [3] it was 370 nM.
On the same counts, the results for `CN(C)Cc1cncc(-c2ccc3[nH]nc(-c4cc5c(-c6ccccc6F)cncc5[nH]4)c3n2)c1` [Compound 69, 1-(5-(3-(4-(2-Fluorophenyl)-1H-pyrrolo[2,3-c]pyridin-2-yl)-1H-pyrazolo [4,3-b]pyridin-5-yl)pyridin-3-yl)-N,N-dimethylmethanamine] are 557 nM, 1510 nM and 1120 nM.
In the case of `Cc1ccncc1-c1ccc2[nH]nc(-c3cc4c(-c5cccnc5)cncc4[nH]3)c2n1` [Compound 89, 5-(4-Methylpyridin-3-yl)-3-(4-(pyridin-3-yl)-1H-pyrrolo[2,3-c]pyridin-2-yl)-1H-pyrazolo[4,3-b]pyridine], the concentration for a half-maximal effect (EC50) was 8840 nM in test [1], greater than 10000 nM in test [2] and 1540 nM in test [3]. In test [2], the inhibition at 10 µM amounted to 35.4%.
As to `FC1(F)CCN(Cc2cncc(-c3ccc4[nH]nc(-c5cc6c(-c7cccnc7)cncc6[nH]5)c4n3)c2)C1` [Compound 110, 5-(5-((3,3-Difluoropyrrolidin-1-yl)methyl)pyridin-3-yl)-3-(4-(pyridin-3-yl)-1H-pyrrolo[2,3-c]pyridin-2-yl)-1H-pyrazolo[4,3-b]pyridine], the EC50 in test [1] worked out at 4860 nM; in test [2], 3850 nM; in test [3], 329 nM.
As for `Nc1cncc(-c2ccc3[nH]nc(-c4cc5c(-c6ccncc6)cncc5[nH]4)c3n2)c1` [Compound 115, 5-(3-(4-(Pyridin-4-yl)-1H-pyrrolo[2,3-c]pyridin-2-yl)-1H-pyrazolo[4,3-b]pyridin-5-yl)pyridin-3-amine], the results for the half-maximal effective concentration (EC50) in test [1], in test [2] and in test [3] were greater than 10000 nM, greater than 10000 nM and 6650 nM, respectively. The figures for the inhibition at 10 µM in test [1] and in test [2] were 7.6% and 30.1%, respectively.
Turning to `c1cc(-c2cncc3[nH]c(-c4n[nH]c5ccc(-c6cncc(CN7CCCCC7)c6)nc45)cc23)ccn1` [Compound 127, 5-(5-(Piperidin-1-ylmethyl)pyridin-3-yl)-3-(4-(pyridin-4-yl)-1H-pyrrolo[2,3-c]pyridin-2-yl)-1H-pyrazolo[4,3-b]pyridine], the figures for the EC50 in test [1], in test [2] and in test [3] were 5260 nM, greater than 10000 nM and 4960 nM, respectively. Moreover, the inhibition at 10 µM in test [2] was 29.6%.
Turning to `O=C(Nc1cncc(-c2ccc3[nH]nc(-c4cc5ccncc5[nH]4)c3n2)c1)C1CCCC1` [Compound 274, N-(5-(3-(1H-Pyrrolo[2,3-c]pyridin-2-yl)-1H-pyrazolo[4,3-b]pyridin-5-yl)pyridin-3-yl)cyclopentanecarboxamide], the EC50 was found to be 3120 nM in test [1], 2630 nM in test [2] and 656 nM in test [3].
For `c1ccc(-c2ccc3[nH]nc(-c4cc5ccncc5[nH]4)c3n2)nc1` [Compound 280, 5-(Pyridin-2-yl)-3-(1H-pyrrolo[2,3-c]pyridin-2-yl)-1H-pyrazolo[4,3-b]pyridine], the concentration for a half-maximal effect (EC50) is greater than 10000 nM in test [1], greater than 10000 nM in test [2] and 1250 nM in test [3]. Besides, the inhibition at 10 µM in test [1] was 3.3%; in test [2], 2.1%.
